In BindingDB's records for doi:10.1111/j.1476-5381.1993.tb13617.x (Glaxo Group Research, 1993):
Values joined by “and” are separate entries in the source; they are usually repeats but may differ in a detail not shown here. Identical values can stand only once. Counter-ions that a name gives are not always drawn.

biological target: 5-hydroxytryptamine receptor 4 (Cavia porcellus, UniProt O70528)
Sequence (O70528 whole entry): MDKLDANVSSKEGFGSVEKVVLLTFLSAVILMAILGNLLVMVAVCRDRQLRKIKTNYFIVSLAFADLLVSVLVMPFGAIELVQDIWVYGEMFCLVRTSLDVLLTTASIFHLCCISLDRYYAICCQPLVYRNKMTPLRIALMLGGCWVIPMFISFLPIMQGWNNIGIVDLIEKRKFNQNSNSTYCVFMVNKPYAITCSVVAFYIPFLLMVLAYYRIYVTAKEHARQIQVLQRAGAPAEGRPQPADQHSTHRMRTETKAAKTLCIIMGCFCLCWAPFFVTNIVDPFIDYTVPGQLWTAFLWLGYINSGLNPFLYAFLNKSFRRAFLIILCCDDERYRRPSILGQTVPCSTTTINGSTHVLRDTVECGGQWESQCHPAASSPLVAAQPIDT

Compound	Ki
COc1cc(N)c(Cl)cc1C(=O)NC1CN2CCC1CC2 (configuration not stated) [ZACOPRIDE,R]	200 nM and 158 nM and 251 nM
NCCc1c[nH]c2ccc(C(N)=O)cc12 [[3H]-5-carboxamidotryptamine]	6310 nM
Cn1cc(CCN)c2cc(O)ccc21 [5-HT,omega-N-Me]	1580 nM
CC(C)n1c(=O)n(C(=O)NC2C[C@H]3CC[C@@H](C2)N3C)c2ccccc21 (some centres not stated) [BIMU 8]	25.1 nM and 12.6 nM
Cn1cc(C(=O)OCC2CCN(CCNS(C)(=O)=O)CC2)c2ccccc21 [GR 113808]	0.25 nM and 0.31 nM
CCN(CC)CCOC(=O)c1cc(Cl)c(N)cc1OC [SDZ-205557]	7.94 nM and 6.3 nM
CCn1c(=O)n(C(=O)NC2CC3CCC(C2)N3C)c2ccccc21 (configuration not stated) [BIMU 1]	15.8 nM
COc1cc(N)c(Cl)cc1C(=O)N[C@@H]1CN2CCC1CC2 [ZACOPRIDE,R]	1000 nM and 501 nM
CN1C2CCC1CC(OC(=O)c1c[nH]c3ccccc13)C2 (configuration not stated)	63.1 nM
COc1ccc2[nH]cc(CCN)c2c1 [tryptamine, 5-Methoxy]	631 nM and 316 nM
COc1cc(N)c(Cl)cc1C(=O)NC1CCN2CCCC1C2 (configuration not stated) [NSC_3035240]	126 nM and 100 nM
CCN(CC)CCNC(=O)c1cc(Cl)c(N)cc1OC [4-amino-5-chloro-N-[2-(diethylamino)ethyl]-2-methoxy-benzamide;hydrochloride]	631 nM and 501 nM
